The values that follow come from paper PMC4657098, “A Review of the Updated Pharmacophore for the Alpha 5 GABA(A) Benzodiazepine Receptor Model” (International Journal of Medicinal Chemistry, 2015).

Where two headings read alike, the source gives them in different places.

The target in one assay is T1, α4β3γ2 GABAA/BzR (Homo sapiens, UniProt P18507+P48169).
T1 construct: expressed in transfected cells; host or cells: LTK cells (given for XLi-093 only)
Conditions: Figure 33; αxβ3γ2; read-out: Affinity Ki α4; cited from earlier work.

The subject of assay [1] is alcohol preferring and HAD rats. The settings on record: cited from earlier work; for rate at which rats self-administrated alcohol: alcohol preferring and HAD rats.
Assay [2] has as its system Bz BS of GABA(A) receptors. Conditions: cited from earlier work; for modulation: Supplement Table 1.
The target of the next assay is α1β3γ2 GABAA/BzR (Homo sapiens, UniProt P14867+P18507). As to the kind of experiment: Competition binding to HEK cell membranes, α1β3γ2. The arrangement: expressed in transfected cells. The settings on record: Ki α1.
The next assay has as its target α2β3γ2 GABAA/BzR (Homo sapiens, UniProt P18507+P47869). As to the kind of experiment: Competition binding to HEK cell membranes, α2β3γ2. Also noted: expressed in transfected cells. The settings on record: Ki α2.
A further assay concerns the target α3β3γ2 GABAA/BzR (Homo sapiens, UniProt P18507+P34903). As to the kind of experiment: Competition binding to HEK cell membranes, α3β3γ2. The settings on record: Ki α3. Also noted: expressed in transfected cells.
The target in another assay is α5β3γ2 GABAA/BzR (Homo sapiens, UniProt P18507+P31644). Kind of assay: Competition binding to HEK cell membranes, α5β3γ2. Also noted: expressed in transfected cells.
The target in assay [3] is T2, α6β3γ2 GABAA/BzR (Homo sapiens, UniProt P18507+Q16445). As to the kind of experiment: Competition binding to HEK cell membranes, α6β3γ2. Also noted: expressed in transfected cells. The settings on record: Ki α6.
Assay [4] has as its target T2, α6β3γ2 GABAA/BzR. The arrangement: expressed in transfected cells; host or cells: LTK cells (given for XLi-093 only). The settings on record: Figure 33; αxβ3γ2; read-out: Affinity Ki α6; cited from earlier work.
For the next assay, the target named is T3, α1β2γ2 GABAA receptor (Homo sapiens, UniProt P14867+P18507).
T3 construct: expressed in transfected cells; host or cells: HEK cells
Kind of assay: Radioligand binding (McKernan and Atack), α1β2γ2. Conditions: Table 3; αxβ2γ2; means of two determinations; read-out: Binding affinity α1. Here is the method:
(§1) Transfected HEK cells (beta2 gamma2 and desired alpha subtype) were harvested into phosphate-buffered saline, centrifuged at 3,000 g, and stored at −70°C until required. On the day of the assay, pellets were thawed and resuspended in sufficient volume of 50 mM Tris/acetate (pH 7.4 at 4°C) to give a total binding of approximately 1500–2000 dpm. […] Total assay volume was 0.5 mL and assays were carried out in 96-well plates and incubation time started by the addition of 0.1 mL of resuspended cell membranes. Following incubation for 1 hour at 4°C, assays were terminated by filtration through GF/B filters, washed with 10 mL ice cold buffer, dried, and then counted using a liquid scintillation counter. […] We have previously reported the synthesis of the following.

The target of another assay is T4, α2β2γ2 GABAA receptor (Homo sapiens, UniProt P18507+P47869).
T4 construct: expressed in transfected cells; host or cells: HEK cells
Kind of assay: Radioligand binding (McKernan and Atack), α2β2γ2. The settings on record: Table 3; αxβ2γ2; means of two determinations; read-out: Binding affinity α2. The method, then: as §1

In the next assay the target is T5, α3β2γ2 GABAA receptor (Homo sapiens, UniProt P18507+P34903).
T5 construct: expressed in transfected cells; host or cells: HEK cells
Kind of assay: Radioligand binding (McKernan and Atack), α3β2γ2. Conditions: Table 3; αxβ2γ2; means of two determinations; read-out: Binding affinity α3. Here is the method:
as §1

The target in another assay is T6, α4β2γ2 GABAA receptor (Homo sapiens, UniProt P18507+P48169).
T6 construct: expressed in transfected cells; host or cells: HEK cells
As to the kind of experiment: Radioligand binding (McKernan and Atack), α4β2γ2. The settings on record: Table 3; αxβ2γ2; means of two determinations; read-out: Binding affinity α4. The method, then: as §1

In another assay the target is T7, α5β2γ2 GABAA receptor (Homo sapiens, UniProt P18507+P31644).
T7 construct: expressed in transfected cells; host or cells: HEK cells
As to the kind of experiment: Radioligand binding (McKernan and Atack), α5β2γ2. Conditions: Table 3; αxβ2γ2; means of two determinations; read-out: Binding affinity α5. Here is the method: as §1

In another assay the target is T8, α6β2γ2 GABAA receptor (Homo sapiens, UniProt P18507+Q16445).
T8 construct: expressed in transfected cells; host or cells: HEK cells
As to the kind of experiment: Radioligand binding (McKernan and Atack), α6β2γ2. The settings on record: Table 3; αxβ2γ2; means of two determinations; read-out: Binding affinity α6. The method, then:
as §1

The next assay concerns baboons. Conditions: cited from earlier work.
The subject of assay [5] is human airway smooth muscle cells. The settings on record: 200 μM; cited from earlier work.
Another assay deals with α2β3γ2 BzR/GABA(A). Conditions: Figure 1; LTK cells; read-out: Binding affinity α2; cited from earlier work.
The next assay addresses α3β3γ2 BzR/GABA(A). Conditions: Figure 1; LTK cells; read-out: Binding affinity α3; cited from earlier work.
Another assay has as its target α4β3γ2 BzR/GABA(A). Conditions: Figure 1; LTK cells; read-out: Binding affinity α4; cited from earlier work.
The target of a further assay is α5β3γ2 BzR/GABA(A). The settings on record: Figure 1; LTK cells; read-out: Binding affinity α5; cited from earlier work.
For a further assay, the target named is α6β3γ2 BzR/GABA(A). Conditions: Figure 1; LTK cells; read-out: Binding affinity α6; cited from earlier work.

With `CC(C)(C)OC(=O)c1cc2c(cn1)[nH]c1ccccc12` [BCCt], the Ki at α4β3γ2 GABAA/BzR was 1000 nM; on α1β3γ2 GABAA/BzR, 0.03 nM; on α2β3γ2 GABAA/BzR, 0.0419 nM; on α3β3γ2 GABAA/BzR it was 0.035 nM; on α5β3γ2 GABAA/BzR (Ki α5), 69.3 nM; on α5β3γ2 GABAA/BzR (read-out: Ki α5), 111 nM. Further, the Ki was 5000 nM on α6β3γ2 GABAA/BzR [3] and above 5000 nM at α6β3γ2 GABAA/BzR [4]. In addition, the “rate at which rats self-administrated alcohol” value in assay [1] was “reduce the rate”. Also, the sucrose self-administration result in assay [1] is listed as “little or no effect”. In assay [2], the modulation entry is reported as “antagonist”. Further, the “pharmacological properties compared with classical benzodiazepine receptor antagonists” value in [2] is listed as “near GABA neutral antagonists”.

Turning to `C#Cc1ccc2c(c1)C(c1ccccc1)=N[C@@H](C)c1c(C(=O)OCC)ncn1-2` [SH-053-S-CH3, (16)], the Ki on α1β2γ2 GABAA receptor was 1670 nM; on α2β2γ2 GABAA receptor it was 1260 nM; on α3β2γ2 GABAA receptor it was 1250 nM; on α4β2γ2 GABAA receptor, above 5000 nM; on α5β2γ2 GABAA receptor, 206 nM; on α6β2γ2 GABAA receptor it was above 5000 nM.

Take `CCCOc1cc2c(cn1)[nH]c1ccccc12.Cl` [3 PBC, 3-propoxy-β-carboline hydrochloride]: the Ki on α4β3γ2 GABAA/BzR was 1000 nM; at α6β3γ2 GABAA/BzR [3] it was 1000 nM; at α6β3γ2 GABAA/BzR [4] it was above 1000 nM. Further, the “rate at which rats self-administrated alcohol” value in assay [1] is on record as “reduce the rate”. In [1], the sucrose self-administration entry is “little or no effect”. For the same compound, the activity in baboons entry in the assay with baboons was “active”. Besides, in assay [2], the modulation entry is “antagonist”. Also, in [2], the “pharmacological properties compared with classical benzodiazepine receptor antagonists” value was “near GABA neutral antagonists”.

In the case of `C#Cc1ccc2c(c1)C(c1ccccc1)=N[C@H](C)c1c(C(=O)OCC)ncn1-2` [SH-053-R-CH3, (15)], the Ki on α1β2γ2 GABAA receptor is 2030 nM; at α2β2γ2 GABAA receptor, 2380 nM; on α3β2γ2 GABAA receptor, 1180 nM; on α4β2γ2 GABAA receptor, above 5000 nM; at α5β2γ2 GABAA receptor it was 949 nM; on α6β2γ2 GABAA receptor, above 5000 nM.

`COc1ccc(-c2ccc(=N)n(CCCC(=O)O)n2)cc1` [gabazine, reference compound]: the “effect on the attenuation by SH-053-2′F-R-CH3 of the calcium increase” value in [5] was “significantly blocked”.

`C#Cc1ccc2c(c1)C(=O)N(C)Cc1c(C(=O)OCC)ncn1-2` [RY-80 (3)]: the Ki is 21.4 nM at α2β3γ2 BzR/GABA(A); 25.8 nM at α3β3γ2 BzR/GABA(A); 5.3 nM at α4β3γ2 BzR/GABA(A); 0.49 nM at α5β3γ2 BzR/GABA(A); 28.8 nM on α6β3γ2 BzR/GABA(A).
